Laboratory results from US11325899B2, “Benzofurane and benzothiophene derivatives as PGE2 receptor modulators” (IDORSIA PHARMACEUTICALS LTD, priority 2017, dated 2022).

Experiments:
PTGER2 (EP2) = molecular target: T1, PTGER2 (EP2) (Homo sapiens, UniProt P43116); experiment: hEP2 b-arrestin assay (PathHunter HEK 293 PTGER2 b-arrestin cells); assay type: cell-based; conditions: antagonistic activity, beta-arrestin assay; read-out: hEP2 b-arr IC50
T1 construct: host or cells: HEK 293 (PathHunter PTGER2 b-arrestin cell line)
T1 sequence (P43116 whole entry): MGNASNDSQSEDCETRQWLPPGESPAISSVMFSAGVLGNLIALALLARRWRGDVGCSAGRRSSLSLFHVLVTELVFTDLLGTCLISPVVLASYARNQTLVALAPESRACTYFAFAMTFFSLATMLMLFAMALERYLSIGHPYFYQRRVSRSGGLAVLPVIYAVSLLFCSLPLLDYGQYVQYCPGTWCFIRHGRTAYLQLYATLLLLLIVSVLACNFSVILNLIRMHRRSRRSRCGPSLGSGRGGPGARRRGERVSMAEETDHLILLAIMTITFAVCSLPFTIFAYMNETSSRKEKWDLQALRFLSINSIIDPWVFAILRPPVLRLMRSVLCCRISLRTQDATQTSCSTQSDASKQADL
Summary of the method: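 PathHunter HEK293 cells with ProLink-tagged EP2 and EA-β-arrestin 2 preincubated 15 min at 37 °C with compound (10 μM-2 nM or 1 μM-0.2 nM), then stimulated 120 min with 5 μM PGE2 (EC80). β-gal complementation read by chemiluminescence; IC50 from duplicate dose-response versus DMSO.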

EP4 receptor = molecular target: T2, EP4 receptor (Homo sapiens, UniProt P35408); experiment: hEP4 cAMP assay (BT549 breast cancer cells, HTRF cAMP, PGE2 stimulation); assay type: cell-based; conditions: antagonistic activity, PGE2 6 nM (EC80)
T2 construct: BT549 breast cancer cells, express high endogenous EP4 levels and very low EP2 levels; host or cells: BT549 breast cancer cells
T2 sequence (P35408 whole entry): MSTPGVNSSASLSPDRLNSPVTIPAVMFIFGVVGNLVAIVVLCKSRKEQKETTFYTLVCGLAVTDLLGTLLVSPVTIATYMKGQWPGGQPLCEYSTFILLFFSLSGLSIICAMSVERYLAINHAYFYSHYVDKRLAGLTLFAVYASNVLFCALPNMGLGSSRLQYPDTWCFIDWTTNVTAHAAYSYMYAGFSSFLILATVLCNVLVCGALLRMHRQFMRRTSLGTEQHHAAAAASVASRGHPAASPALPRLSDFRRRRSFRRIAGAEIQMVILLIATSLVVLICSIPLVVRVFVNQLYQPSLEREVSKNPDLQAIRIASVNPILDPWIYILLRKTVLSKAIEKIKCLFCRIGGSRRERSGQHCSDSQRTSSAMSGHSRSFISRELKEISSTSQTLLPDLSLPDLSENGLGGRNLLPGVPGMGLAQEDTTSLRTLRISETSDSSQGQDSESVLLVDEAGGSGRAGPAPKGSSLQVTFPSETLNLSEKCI
Summary of the method: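 BT549 cells, with endogenous EP4 and very low EP2, were preincubated 45 min at room temperature with compound in HBSS/HEPES/BSA buffer with 2 mM IBMX. They were then stimulated 30 min with 6 nM PGE2 (EC80). cAMP was measured by HTRF competitive immunoassay against a calibrator; IC50 from duplicate dose-response as % of DMSO control.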

IC50 (PTGER2 (EP2)) [nM]	IC50 (EP4 receptor) [nM]	SMILES
104	425	CCOc1cc(-c2cc(NCCc3c(C)sc4c(C)cccc34)ncn2)ccc1C(C)C(=O)O (racemic) [Example 126, rac-2-(4-{6-[2-(2,7-Dimethyl-benzo[b]thiophen-3-yl)-ethylamino]-pyrimidin-4-yl}-2-ethoxy-phenyl)-propionic acid]
26	867	CCCOc1cc(-c2cc(NCCc3c(C)sc4c(Cl)ccc(Cl)c34)ncn2)ccc1C(=O)O [Example 102, 4-{6-[2-(4,7-Dichloro-2-methyl-benzo[b]thiophen-3-yl)-ethylamino]-pyrimidin-4-yl}-2-propoxy-benzoic acid]
79	331	CCOc1cc(-c2cc(NCCc3c(C)sc4c(C)ccc(F)c34)ncn2)cc(C)c1C(=O)O [Example 103, 2-Ethoxy-4-{6-[2-(4-fluoro-2,7-dimethyl-benzo[b]thiophen-3-yl)-ethylamino]-pyrimidin-4-yl}-6-methyl-benzoic acid]
36	30	CCOc1cc(-c2cc(NCCc3c(C#N)sc4c(C)cc(F)cc34)ncn2)ccc1CC(=O)O [Example 104, (4-{6-[2-(2-Cyano-5-fluoro-7-methyl-benzo[b]thiophen-3-yl)-ethylamino]-pyrimidin-4-yl}-2-ethoxy-phenyl)-acetic acid]
33	125	CCOc1cc(-c2cc(NCCc3c(C)sc4c(OC)ccc(F)c34)ncn2)ccc1CC(=O)O [Example 105, (2-Ethoxy-4-{6-[2-(4-fluoro-7-methoxy-2-methyl-benzo[b]thiophen-3-yl)-ethylamino]-pyrimidin-4-yl}-phenyl)-acetic acid]
38	255	CCOc1cc(-c2cc(NCCc3c(C)sc4c(C)ccc(F)c34)ncn2)ccc1CC(=O)O [Example 107, (2-Ethoxy-4-{6-[2-(4-fluoro-2,7-dimethyl-benzo[b]thiophen-3-yl)-ethylamino]-pyrimidin-4-yl}-phenyl)-acetic acid]
24	290	CCOc1cc(-c2cc(NCCc3c(C)sc4c(C)cccc34)ncn2)ccc1CC(=O)O [Example 109, (4-{6-[2-(2,7-Dimethyl-benzo[b]thiophen-3-yl)-ethylamino]-pyrimidin-4-yl}-2-ethoxy-phenyl)-acetic acid]
25	296	CCOc1cc(-c2cc(NCCc3c(C)sc4c(C)cc(F)cc34)ncn2)ccc1CC(=O)O [Example 110, (2-Ethoxy-4-{6-[2-(5-fluoro-2,7-dimethyl-benzo[b]thiophen-3-yl)-ethylamino]-pyrimidin-4-yl}-phenyl)-acetic acid]
42	450	CCOc1cc(-c2cc(NCCc3c(C)sc4c(C)c(F)ccc34)ncn2)ccc1CC(=O)O [Example 112, (2-Ethoxy-4-{6-[2-(6-fluoro-2,7-dimethyl-benzo[b]thiophen-3-yl)-ethylamino]-pyrimidin-4-yl}-phenyl)-acetic acid]
16	60	Cc1sc2c(C)cc(F)cc2c1CCNc1cc(-c2ccc(C(=O)O)c(OC(F)F)c2)ncn1 [Example 115, 2-Difluoromethoxy-4-{6-[2-(5-fluoro-2,7-dimethyl-benzo[b]thiophen-3-yl)-ethylamino]-pyrimidin-4-yl}-benzoic acid]
30	223	COc1ccc(Cl)c2c(CCNc3cc(-c4ccc(C(=O)O)c(OC(F)F)c4)ncn3)c(C)sc12 [Example 116, 4-{6-[2-(4-Chloro-7-methoxy-2-methyl-benzo[b]thiophen-3-yl)-ethylamino]-pyrimidin-4-yl}-2-difluoromethoxy-benzoic acid]
20	54	CCOc1cc(-c2cc(NCCc3c(C)sc4c(OC)ccc(F)c34)ncn2)ccc1OCC(=O)O [Example 117, (2-Ethoxy-4-{6-[2-(4-fluoro-7-methoxy-2-methyl-benzo[b]thiophen-3-yl)-ethylamino]-pyrimidin-4-yl}-phenoxy)-acetic acid]
16	87	CCOc1cc(-c2cc(NCCc3c(C)sc4c(C)ccc(F)c34)ncn2)ccc1OCC(=O)O [Example 118, (2-Ethoxy-4-{6-[2-(4-fluoro-2,7-dimethyl-benzo[b]thiophen-3-yl)-ethylamino]-pyrimidin-4-yl}-phenoxy)-acetic acid]
21	110	CCOc1cc(-c2cc(NCCc3c(C)sc4c(C)c(F)ccc34)ncn2)ccc1OCC(=O)O [Example 119, (2-Ethoxy-4-{6-[2-(6-fluoro-2,7-dimethyl-benzo[b]thiophen-3-yl)-ethylamino]-pyrimidin-4-yl}-phenoxy)-acetic acid]
29	123	CCOc1cc(-c2cc(NCCc3c(C)oc4c(Cl)cccc34)ncn2)ccc1OCC(=O)O [Example 120, (4-{6-[2-(7-Chloro-2-methyl-benzofuran-3-yl)-ethylamino]-pyrimidin-4-yl}-2-ethoxy-phenoxy)-acetic acid]

Second part, the compound before the results:

SMILES	IC50 (PTGER2 (EP2)) [nM]	IC50 (EP4 receptor) [nM]
COc1ccc(Cl)c2c(CCNc3cc(-c4cc(C)c(C(=O)O)s4)ncn3)c(C)sc12 [Example 5, 5-{6-[2-(4-Chloro-7-methoxy-2-methyl-benzo[b]thiophen-3-yl)-ethylamino]-pyrimidin-4-yl}-3-methyl-thiophene-2-carboxylic acid]	106	479
Cc1cc(-c2cc(NCCc3c(C)oc4ccccc34)ncn2)sc1C(=O)O [Example 6, 3-Methyl-5-{6-[2-(2-methyl-benzofuran-3-yl)-ethylamino]-pyrimidin-4-yl}-thiophene-2-carboxylic acid]	5	549
CCc1oc2c(C)cc(F)cc2c1CCNc1cc(-c2cc(C)c(C(=O)O)s2)ncn1 [Example 7, 5-{6-[2-(2-Ethyl-5-fluoro-7-methyl-benzofuran-3-yl)-ethylamino]-pyrimidin-4-yl}-3-methyl-thiophene-2-carboxylic acid]	283	624
Cc1sc2c(C)cccc2c1CCNc1cc(-c2ccc(C(=O)O)cc2)ncn1 [Example 8, 4-{6-[2-(2,7-Dimethyl-benzo[b]thiophen-3-yl)-ethylamino]-pyrimidin-4-yl}-benzoic acid]	16	369
COc1ccc(Cl)c2c(CCNc3cc(-c4ccc(C(=O)O)c(O)c4)ncn3)c(C)sc12 [Example 9, 4-{6-[2-(4-Chloro-7-methoxy-2-methyl-benzo[b]thiophen-3-yl)-ethylamino]-pyrimidin-4-yl}-2-hydroxy-benzoic acid]	118	550
Cc1sc2c(C)cc(F)cc2c1CCNc1cc(-c2ccc(C(=O)O)c(O)c2)ncn1 [Example 10, 4-{6-[2-(5-Fluoro-2,7-dimethyl-benzo[b]thiophen-3-yl)-ethylamino]-pyrimidin-4-yl}-2-hydroxy-benzoic acid]	58	860
CSc1cc(-c2cc(NCCc3c(C#N)sc4c(C)cc(F)cc34)ncn2)ccc1C(=O)O [Example 12, 4-{6-[2-(2-Cyano-5-fluoro-7-methyl-benzo[b]thiophen-3-yl)-ethylamino]-pyrimidin-4-yl}-2-methylsulfanyl-benzoic acid]	4	20
COc1cccc2c(CCNc3cc(-c4ccc(C(=O)O)c(SC)c4)ncn3)c(C#N)sc12 [Example 13, 4-{6-[2-(2-Cyano-7-methoxy-benzo[b]thiophen-3-yl)-ethylamino]-pyrimidin-4-yl}-2-methylsulfanyl-benzoic acid]	51	27
CCOc1cc(-c2cc(NCCc3c(C)sc4c(C)cc(F)cc34)ncn2)sc1/C=C/C(=O)O [Example 96, (E)-3-(3-Ethoxy-5-{6-[2-(5-fluoro-2,7-dimethyl-benzo[b]thiophen-3-yl)-ethylamino]-pyrimidin-4-yl}-thiophen-2-yl)-acrylic acid]	20	42
CCOc1cc(-c2cc(NCCc3c(C)sc4c(C)cc(F)cc34)ncn2)sc1CCC(=O)O [Example 97, 3-(3-Ethoxy-5-{6-[2-(5-fluoro-2,7-dimethyl-benzo[b]thiophen-3-yl)-ethylamino]-pyrimidin-4-yl}-thiophen-2-yl)-propionic acid]	49	105
COc1ccc(Cl)c2c(CCNc3cc(-c4ccc(C(=O)O)c(OC(C)C)c4)ncn3)c(C)sc12 [Example 98, 4-{6-[2-(4-Chloro-7-methoxy-2-methyl-benzo[b]thiophen-3-yl)-ethylamino]-pyrimidin-4-yl}-2-isopropoxy-benzoic acid]	55	216
CCCOc1cc(-c2cc(NCCc3c(C)sc4c(C)c(F)ccc34)ncn2)ccc1C(=O)O [Example 99, 4-{6-[2-(6-Fluoro-2,7-dimethyl-benzo[b]thiophen-3-yl)-ethylamino]-pyrimidin-4-yl}-2-propoxy-benzoic acid]	5	450
CCCOc1cc(-c2cc(NCCc3c(C)sc4c(C)cc(F)cc34)ncn2)ccc1C(=O)O [Example 100, 4-{6-[2-(5-Fluoro-2,7-dimethyl-benzo[b]thiophen-3-yl)-ethylamino]-pyrimidin-4-yl}-2-propoxy-benzoic acid]	12	457
CCCOc1cc(-c2cc(NCCc3c(C)sc4c(OC)ccc(Cl)c34)ncn2)ccc1C(=O)O [Example 101, 4-{6-[2-(4-Chloro-7-methoxy-2-methyl-benzo[b]thiophen-3-yl)-ethylamino]-pyrimidin-4-yl}-2-propoxy-benzoic acid]	22	482
